The subject of data set [1] is lipids in blood. Description: Reduction of lipids in blood of rats given surfactant Triton WR-1339, oral administration. In kind it is in vivo, rat. As to conditions: rats given Triton WR-1339 200 mg/kg i.v., compound 50 mg/kg oral; for Free cholesterol: normal rat 25.7 ± 3.7, rat given surfactant 114.2 ± 28.8; for β-Lipoprotein: normal rat 44.3 ± 1.3, rat given surfactant 141.7 ± 28.8; for Triglyceride: normal rat 44.7 ± 3.5, rat given surfactant 780.1 ± 354.5; for Total cholesterol: normal rat 89.9 ± 10.4, rat given surfactant 235.3 ± 41.7; for Total lipid: normal rat 220 ± 12, rat given surfactant 1033 ± 330. The protocol:
A 100 g quantity of the methyl ester of polyglutamic acid (average molecular weight: 100,000) is dissolved in dichloroethane to a concentration of 10 wt.%. To the solution is added a mixture of 70 ml of 2 N sodium hydroxide solution, 140 ml of methanol and 140 ml of isopropanol,and the resulting mixture is stirred at room temperature for about 8 hours to effect demethylation. The product is then passed through a molecular sieve (Sephadex G-200) for the classification of molecular weight to separate a portion ranging from 80,000 to 100,000 in molecular weight (average molecular weight: 90,000). The separated portion is concentrated under reduced pressure and divided into two portions of equivalent weight. To one of the portions is added methanol and the precipitate formed is separated by filtration and dried to obtain the sodium salt of polyglutamic acid. To the other portion is added concentrated hydrochloric acid until the pH thereof reaches 4, then the solution is cooled with ice, whereby a precipitate is formed. The precipitate is separated by filtration, washed with diluted hydrochloric acid, thereafter with methanol and dried to obtain polyglutamic acid. Each powder (200 mg) of polyglutamic acid and sodium salt thereof thus obtained is mixed with 290 mg of milk sugar, 500 mg of corn starch and 10 mg of hydroxypropyl cellulose and the mixtures obtained are granulated respectively. The granules are suspended in water. Two kinds of the suspensions are orally administered to 7 rats in a dose of 50 mg/kg, respectively, to determine the reduction of lipids in blood.
The separated portion is concentrated under reduced pressure, methanol is added to the concentrate and the resulting precipitate is filtered off and dried to obtain the sodium salt of the copolymer of glutamic acid and aspartic acid. With the powder (200 mg) thus obtained are mixed 290 mg of milk sugar, 500 mg of corn starch and 10 mg of hydroxypropyl cellulose. The mixture is granulated and the granules are suspended in an isotonic sodium chloride solution.

The subject of data set [2] is plasma. Description: Recalcification test. The settings on record: 58 sec. at 0 μg. In kind it is biochemical, rat. Here is the method:
A 0.5 ml quantity of 0.1 M sodium citrate is added to 4.5 ml of blood of rat to obtain plasma. […] Thereafter 0.1 ml of 0.025 M CaCl2 saline solution is added to coagulate the blood sample.

In data set [3] the test system is lipids in blood. As to conditions: known drugs, background; cited from earlier work.
The subject of data set [4] is anticoagulant activity. As to conditions: cited from earlier work.
Data set [5] deals with Rat. Description: Acute toxicity test. In kind it is in vivo. As to conditions: for LD50: 72 hours after administration.
Setting [6] is: amount 100 μg, ditto mark = No coagulation.

Consider sodium salt of polyglutamic acid, for which, in data set [1], the Free cholesterol is given as 40.0 ± 11.4 mg/dl of plasma, the β-Lipoprotein is 63.4 ± 16.9 mg/dl of plasma, the Triglyceride was 92.0 ± 42.8 mg/dl of plasma and the Total cholesterol was 121.8 ± 18.9 mg/dl of plasma. In addition, the Total lipid in data set [1] was 393 ± 66 mg/dl of plasma.
On to dextran sulfate, for which the Coagulation time in data set [2] (amount 0.1 μg) was 57 s; in data set [2] (amount 0.3 μg), 62 s; in data set [2] (amount 0.5 μg), 61 s; in data set [2] (amount 1 μg), 117 s; in data set [2] (amount 10 μg) it was 172 s; in data set [2] (setting [6]), “No coagulation”. Further, in data set [3], the “reducing lipids in blood” value was “effective in reducing lipids in blood”. Further, in data set [4], the “anticoagulant activity as a side effect” value is recorded as “very high anticoagulant activity”.
A word on the LD50: it is the dose at which mortality reaches 50%. Read a low LD50 as greater toxicity. Consider polyglutamic acid, for which the Free cholesterol in data set [1] is recorded as 38.8 ± 11.7 mg/dl of plasma. Besides, in data set [1], the β-Lipoprotein was 61.9 ± 29.0 mg/dl of plasma. In addition, the Triglyceride in data set [1] is on record as 103.3 ± 67.2 mg/dl of plasma. For the same substance, the Total cholesterol in data set [1] was 118.1 ± 35.3 mg/dl of plasma. The Total lipid in data set [1] is recorded as 373 ± 132 mg/dl of plasma. Further, the “toxicity compared with heparin” value in data set [5] (Table 2) is “much lower toxicity than heparin”. Moreover, the LD50 came out at 2.05 g/kg in data set [5] (intravenous) and 6 g/kg in data set [5] (oral). In addition, the Coagulation time stood at 55 s in data set [2] (amount 0.1 μg); 58 s in data set [2] (amount 0.3 μg); 56 s in data set [2] (amount 0.5 μg); 62 s in data set [2] (amount 1 μg); 58 s in data set [2] (amount 10 μg); 62 s in data set [2] (setting [6]). Besides, the Coagulation time in data set [2] (amount 500 μg, ditto mark = No coagulation) was found to be 100 s; in data set [2] (amount 1000 μg, ditto mark = No coagulation), 151 s; in data set [2] (amount 2000 μg, ditto mark = No coagulation) it was 250 s.
Turning to heparin, the LD50 in data set [5] (intravenous) amounted to 0.73 g/kg; in data set [5] (oral) it was 1.95 g/kg. Moreover, the Coagulation time in data set [2] (amount 0.1 μg) is 62 s; in data set [2] (amount 0.3 μg), 145 s; in data set [2] (amount 0.5 μg), 168 s; in data set [2] (amount 1 μg), 285 s; in data set [2] (amount 10 μg), “No coagulation”. Moreover, in data set [3], the “reducing lipids in blood” value is given as “effective in reducing lipids in blood”. In addition, the “anticoagulant activity as a side effect” value in data set [4] is “very high anticoagulant activity”.

The values above are taken from US4232007A, “Oral antilipemic agents” (Taiho Pharmaceutical Company Ltd., priority 1975, dated 1980).
